Laboratory results published in patent publication US20250145585A1, “HETEROCYCLIC INHIBITORS OF IGF-1R FOR TREATMENT OF DISEASE” (HORIZON THERAPEUTICS IRELAND DAC, priority 2023, published 2025).

Target: T1, IGF-1R (Homo sapiens, UniProt P08069)
T1 construct: expressed in transfected cells
Experiment: Example B-1: IGF-1R Assay (PC3 cells stimulated with IGF1, AlphaLISA on cell lysates)
Assay type: cell-based
Conditions: compound two hours, IGF1 200 ng/mL for 30 min, read-out: IC50, Biological Activity against IGF-1R (Table B1)
How it was run: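 PC3 cells serum-starved 2 h, treated 2 h with 3-fold serially diluted compound, then stimulated 30 min with IGF1 (200 ng/mL final). Lysates analysed by AlphaLISA; % inhibition calculated relative to vehicle and EC80 controls, IC50 derived.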

T1 sequence (P08069 31-1367): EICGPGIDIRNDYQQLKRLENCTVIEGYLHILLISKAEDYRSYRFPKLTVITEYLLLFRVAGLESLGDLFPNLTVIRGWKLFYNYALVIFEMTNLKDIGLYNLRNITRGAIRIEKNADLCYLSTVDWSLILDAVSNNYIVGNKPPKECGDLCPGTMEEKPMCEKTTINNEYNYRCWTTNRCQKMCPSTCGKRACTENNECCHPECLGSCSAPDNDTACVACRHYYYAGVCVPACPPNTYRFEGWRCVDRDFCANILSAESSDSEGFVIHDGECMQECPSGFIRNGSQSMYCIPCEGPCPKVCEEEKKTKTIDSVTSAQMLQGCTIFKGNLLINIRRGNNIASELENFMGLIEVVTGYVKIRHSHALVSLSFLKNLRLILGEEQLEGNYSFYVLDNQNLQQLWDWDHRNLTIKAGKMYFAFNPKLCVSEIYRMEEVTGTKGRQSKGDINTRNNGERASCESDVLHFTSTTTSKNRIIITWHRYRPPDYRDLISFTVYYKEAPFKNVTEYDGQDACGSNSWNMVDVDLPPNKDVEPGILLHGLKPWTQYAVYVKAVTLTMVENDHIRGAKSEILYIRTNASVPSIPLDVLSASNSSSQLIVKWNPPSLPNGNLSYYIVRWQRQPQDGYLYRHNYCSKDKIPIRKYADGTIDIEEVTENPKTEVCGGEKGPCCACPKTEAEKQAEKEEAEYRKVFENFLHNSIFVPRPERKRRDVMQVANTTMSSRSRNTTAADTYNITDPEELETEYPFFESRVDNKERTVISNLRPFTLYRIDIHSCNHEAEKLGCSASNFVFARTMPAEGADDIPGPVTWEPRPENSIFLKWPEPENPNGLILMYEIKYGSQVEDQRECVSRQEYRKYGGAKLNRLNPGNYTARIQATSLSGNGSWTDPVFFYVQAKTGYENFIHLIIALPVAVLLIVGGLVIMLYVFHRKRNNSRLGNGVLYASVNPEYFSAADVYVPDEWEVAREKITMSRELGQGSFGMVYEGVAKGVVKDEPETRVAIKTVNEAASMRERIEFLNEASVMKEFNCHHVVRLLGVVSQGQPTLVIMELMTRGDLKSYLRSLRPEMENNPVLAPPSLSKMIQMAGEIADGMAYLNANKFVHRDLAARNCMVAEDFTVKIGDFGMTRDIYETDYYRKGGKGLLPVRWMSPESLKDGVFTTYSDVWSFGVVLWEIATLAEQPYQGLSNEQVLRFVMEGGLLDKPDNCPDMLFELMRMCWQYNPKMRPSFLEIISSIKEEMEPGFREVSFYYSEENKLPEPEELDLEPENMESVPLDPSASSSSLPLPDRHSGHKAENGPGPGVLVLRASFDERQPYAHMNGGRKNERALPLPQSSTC

SMILES	IC50 [µM]
CC1(C)C(=O)N(c2ccc(SC(F)(F)F)cc2)C(=O)N1Cc1ccnc(NC(=O)C2CC3(CNC3)C2)c1 [Compound 302, N-(4-((5,5-dimethyl-2,4-dioxo-3-(4-((trifluoromethyl)thio)phenyl)imidazolidin-1-yl)methyl)pyridin-2-yl)-2-azaspiro[3.3]heptane-6-carboxamide]	≤ 0.5
CC1(C)C(=O)N(c2ccc(SC(F)(F)F)cc2)C(=O)N1Cc1ccnc(NC(=O)NC2CCOC2)c1 (centres unmarked) [Compound 303, 1-(4-((5,5-dimethyl-2,4-dioxo-3-(4-((trifluoromethyl)thio)phenyl)imidazolidin-1-yl)methyl)pyridin-2-yl)-3-(tetrahydrofuran-3-yl)urea]	≤ 0.5
CC1(C)C(=O)N(c2ccc(SC(F)(F)F)cc2)C(=O)N1Cc1ccnc(NC(=O)NC23CCC(CC2)C3)c1 [Compound 304, 1-(bicyclo[2.2.1]heptan-1-yl)-3-(4-((5,5-dimethyl-2,4-dioxo-3-(4-((trifluoromethyl)thio)phenyl)imidazolidin-1-yl)methyl)pyridin-2-yl)urea]	0.5 to 2
CC1(C)C(=O)N(c2ccc(SC(F)(F)F)cc2)C(=O)N1Cc1ccnc(NC(=O)C2NCC23CCCCC3)c1 (centres unmarked) [Compound 305, N-(4-((5,5-dimethyl-2,4-dioxo-3-(4-((trifluoromethyl)thio)phenyl)imidazolidin-1-yl)methyl)pyridin-2-yl)-2-azaspiro[3.5]nonane-1-carboxamide]	2 to 10
CC1(C)C(=O)N(c2ccc(SC(F)(F)F)cc2)C(=O)N1Cc1ccnc(NC(=O)NC2CCOCC2)c1 [Compound 306, 1-(4-((5,5-dimethyl-2,4-dioxo-3-(4-((trifluoromethyl)thio)phenyl)imidazolidin-1-yl)methyl)pyridin-2-yl)-3-(tetrahydro-2H-pyran-4-yl)urea]	≤ 0.5
CC1(C)C(=O)N(c2ccc(SC(F)(F)F)cc2)C(=O)N1Cc1ccnc(NC(=O)NC2CCN(CC(F)(F)F)CC2)c1 [Compound 307, 1-(4-((5,5-dimethyl-2,4-dioxo-3-(4-((trifluoromethyl)thio)phenyl)imidazolidin-1-yl)methyl)pyridin-2-yl)-3-(1-(2,2,2-trifluoroethyl)piperidin-4-yl)urea]	≤ 0.5
CC1(C)C(=O)N(c2ccc(SC(F)(F)F)cc2)C(=O)N1Cc1ccnc(NC(=O)NC2COC2)c1 [Compound 308, 1-(4-((5,5-dimethyl-2,4-dioxo-3-(4-((trifluoromethyl)thio)phenyl)imidazolidin-1-yl)methyl)pyridin-2-yl)-3-(oxetan-3-yl)urea]	≤ 0.5
CN1CCC(NC(=O)Nc2cc(CN3C(=O)N(c4ccc(SC(F)(F)F)cc4)C(=O)C3(C)C)ccn2)CC1 [Compound 309, 1-(4-((5,5-dimethyl-2,4-dioxo-3-(4-((trifluoromethyl)thio)phenyl)imidazolidin-1-yl)methyl)pyridin-2-yl)-3-(1-methylpiperidin-4-yl)urea]	≤ 0.5
CC1(C)C(=O)N(c2ccc(SC(F)(F)F)cc2)C(=O)N1Cc1ccnc(NCC2CC2)c1 [Compound 311, 1-((2-((cyclopropylmethyl)amino)pyridin-4-yl)methyl)-5,5-dimethyl-3-(4-((trifluoromethyl)thio)phenyl) imidazolidine-2,4-dione]	≤ 0.5
CC1(C)C(=O)N(c2ccc(SC(F)(F)F)cc2)C(=O)N1Cc1ccnc(NCc2ncc[nH]2)c1 [Compound 312, 1-((2-(((1H-imidazol-2-yl)methyl)amino)pyridin-4-yl)methyl)-5,5-dimethyl-3-(4-((trifluoromethyl)thio)phenyl) imidazolidine-2,4-dione]	0.5 to 2
CC1(C)C(=O)N(c2ccc(SC(F)(F)F)cc2)C(=O)N1Cc1ccnc(NCC(F)(F)F)c1 [Compound 313, 5,5-dimethyl-1-((2-((2,2,2-trifluoroethyl)amino)pyridin-4-yl)methyl)-3-(4-((trifluoromethyl)thio)phenyl) imidazolidine-2,4-dione]	0.5 to 2
CC1(C)C(=O)N(c2ccc(SC(F)(F)F)cc2)C(=O)N1Cc1ccnc(NC2COC2)c1 [Compound 314, 5,5-dimethyl-1-((2-(oxetan-3-ylamino)pyridin-4-yl)methyl)-3-(4-((trifluoromethyl)thio)phenyl) imidazolidine-2,4-dione]	> 10
CC1(C)C(=O)N(c2ccc(SC(F)(F)F)cc2)C(=O)N1Cc1ccnc(NCC(F)F)c1 [Compound 315, 1-((2-((2,2-difluoroethyl)amino)pyridin-4-yl)methyl)-5,5-dimethyl-3-(4-((trifluoromethyl)thio)phenyl) imidazolidine-2,4-dione]	≤ 0.5
CN1CC(Nc2cc(CN3C(=O)N(c4ccc(C(C)(C)C)cc4)C(=O)C3(C)C)ccn2)C1 [Compound 345, 3-(4-(tert-butyl)phenyl)-5,5-dimethyl-1-((2-((1-methylazetidin-3-yl)amino)pyridin-4-yl)methyl)imidazolidine-2,4-dione]	0.5 to 2
CC(C)(C)c1ccc(N2C(=O)N(Cc3ccnc(-c4ccccc4)c3)C(C)(C)C2=O)cc1 [Compound 346, 3-(4-(tert-butyl)phenyl)-5,5-dimethyl-1-((2-phenylpyridin-4-yl)methyl)imidazoline-2,4-dione]	0.5 to 2
CC(C)(C)c1ccc(N2C(=O)N(Cc3ccnc(-c4ccn[nH]4)c3)C(C)(C)C2=O)cc1 [Compound 347, 1-((2-(1H-pyrazol-5-yl)pyridin-4-yl)methyl)-3-(4-(tert-butyl)phenyl)-5,5-dimethylimidazoline-2,4-dione]	≤ 0.5
CN(C)CC(=O)Nc1cc(CN2C(=O)N(c3ccc(SC(F)(F)F)cc3)C(=O)C2(C)C)ccn1 [Compound 348, N-(4-((5,5-dimethyl-2,4-dioxo-3-(4-((trifluoromethyl)thio)phenyl)imidazolidin-1-yl)methyl)pyridin-2-yl)-2-(dimethylamino)acetamide]	≤ 0.5
CN1CC(Oc2ccc(Nc3cc(CN4C(=O)N(c5ccc(SC(F)(F)F)cc5)C(=O)C4(C)C)ccn3)cc2)C1 [Compound 349, 5,5-dimethyl-1-((2-((4-((1-methylazetidin-3-yl)oxy)phenyl)amino)pyridin-4-yl)methyl)-3-(4-((trifluoromethyl)thio)phenyl) imidazolidine-2,4-dione]	≤ 0.5
Cn1cc(NC(=O)Nc2cc(CN3C(=O)N(c4ccc(SC(F)(F)F)cc4)C(=O)C3(C)C)ccn2)cn1 [Compound 350, 1-(4-((5,5-dimethyl-2,4-dioxo-3-(4-((trifluoromethyl)thio)phenyl)imidazolidin-1-yl)methyl)pyridin-2-yl)-3-(1-methyl-1H-pyrazol-4-yl)urea]	≤ 0.5
COc1cc(NC(=O)Nc2cc(CN3C(=O)N(c4ccc(SC(F)(F)F)cc4)C(=O)C3(C)C)ccn2)ccc1O[C@H]1C[C@@H](N(C)C)C1 [Compound 351, 1-(4-((5,5-dimethyl-2,4-dioxo-3-(4-((trifluoromethyl)thio)phenyl)imidazolidin-1-yl)methyl)pyridin-2-yl)-3-(4-((1s,3s)-3-(dimethylamino)cyclobutoxy)-3-methoxyphenyl)urea]	≤ 0.5
CC1(C)C(=O)N(c2ccc(SC(F)(F)F)cc2)C(=O)N1Cc1ccnc(Nc2ncc[nH]2)c1 [Compound 352, 1-((2-((1H-imidazol-2-yl)amino)pyridin-4-yl)methyl)-5,5-dimethyl-3-(4-((trifluoromethyl)thio)phenyl) imidazolidine-2,4-dione]	≤ 0.5
Cc1ccncc1Nc1cc(CN2C(=O)N(c3ccc(SC(F)(F)F)cc3)C(=O)C2(C)C)ccn1 [Compound 358, 5,5-dimethyl-1-((2-((4-methylpyridin-3-yl)amino)pyridin-4-yl)methyl)-3-(4-((trifluoromethyl)thio)phenyl) imidazolidine-2,4-dione]	≤ 0.5
CN(C)C(=O)c1cncc(Nc2cc(CN3C(=O)N(c4ccc(SC(F)(F)F)cc4)C(=O)C3(C)C)ccn2)c1 [Compound 359, 5-((4-((5,5-dimethyl-2,4-dioxo-3-(4-((trifluoromethyl)thio)phenyl)imidazolidin-1-yl)methyl)pyridin-2-yl)amino)-N,N-dimethylnicotinamide]	≤ 0.5
CC1(C)C(=O)N(c2ccc(SC(F)(F)F)cc2)C(=O)N1Cc1ccnc(NC(=O)c2cccnc2)c1 [Compound 360, N-(4-((5,5-dimethyl-2,4-dioxo-3-(4-((trifluoromethyl)thio)phenyl)imidazolidin-1-yl)methyl)pyridin-2-yl)nicotinamide]	≤ 0.5
CNC(=O)Nc1cc(CN2C(=O)N(c3ccc(SC(F)(F)F)cc3)C(=O)C2(C)C)ccn1 [Compound 361, 1-(4-((5,5-dimethyl-2,4-dioxo-3-(4-((trifluoromethyl)thio)phenyl)imidazolidin-1-yl)methyl)pyridin-2-yl)-3-methylurea]	≤ 0.5
CC1(C)C(=O)N(c2ccc(SC(F)(F)F)cc2)C(=O)N1Cc1ccnc(Nc2cccc(O)n2)c1 [Compound 362, 1-((2-((6-hydroxypyridin-2-yl)amino)pyridin-4-yl)methyl)-5,5-dimethyl-3-(4-((trifluoromethyl)thio)phenyl) imidazolidine-2,4-dione]	0.5 to 2
COc1ccc(NC(=O)Nc2cc(CN3C(=O)N(c4ccc(SC(F)(F)F)cc4)C(=O)C3(C)C)ccn2)cc1 [Compound 363, 1-(4-((5,5-dimethyl-2,4-dioxo-3-(4-((trifluoromethyl)thio)phenyl)imidazolidin-1-yl)methyl)pyridin-2-yl)-3-(4-methoxyphenyl)urea]	≤ 0.5
COc1cccc(NC(=O)Nc2cc(CN3C(=O)N(c4ccc(SC(F)(F)F)cc4)C(=O)C3(C)C)ccn2)c1 [Compound 364, 1-(4-((5,5-dimethyl-2,4-dioxo-3-(4-((trifluoromethyl)thio)phenyl)imidazolidin-1-yl)methyl)pyridin-2-yl)-3-(3-methoxyphenyl)urea]	≤ 0.5
CC(=O)Nc1cc(CN2C(=O)N(c3ccc(SC(F)(F)F)cc3)C(=O)C2(C)C)ncn1 [Compound 365, N-(6-((5,5-dimethyl-2,4-dioxo-3-(4-((trifluoromethyl)thio)phenyl)imidazolidin-1-yl)methyl)pyrimidin-4-yl)acetamide]	≤ 0.5
